Structures can show the parent of a compound that is named as a salt. Where two headings read alike, the source gives them in different places.
Key:
[1] = molecular target: T1, HO-1 (rat spleen) (Rattus norvegicus, UniProt P06762); experiment: HO enzymatic activity in rat spleen microsomal fraction (CO formed from methemalbumin, gas chromatography); type: biochemical
T1 construct: Spleen microsomes were used as a source of HO-1; from tissue; host or cells: spleen microsomal fraction of adult male Sprague-Dawley rats
T1 sequence (P06762 1-289): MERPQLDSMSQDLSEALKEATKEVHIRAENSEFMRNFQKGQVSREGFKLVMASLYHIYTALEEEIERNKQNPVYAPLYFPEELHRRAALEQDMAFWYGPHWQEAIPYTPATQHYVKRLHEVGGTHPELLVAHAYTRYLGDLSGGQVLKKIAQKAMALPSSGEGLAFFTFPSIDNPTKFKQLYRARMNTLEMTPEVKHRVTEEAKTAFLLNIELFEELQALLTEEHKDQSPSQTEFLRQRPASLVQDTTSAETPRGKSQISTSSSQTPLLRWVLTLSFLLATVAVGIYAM

[2] = molecular target: T2, HO-2 (rat brain) (Rattus norvegicus, UniProt P23711); experiment: HO enzymatic activity in rat brain microsomal fraction (CO formed from methemalbumin, gas chromatography); type: biochemical
T2 construct: brain microsomes were used as a source of HO-2; from tissue; host or cells: brain microsomal fraction of adult male Sprague-Dawley rats
T2 sequence (P23711 1-315): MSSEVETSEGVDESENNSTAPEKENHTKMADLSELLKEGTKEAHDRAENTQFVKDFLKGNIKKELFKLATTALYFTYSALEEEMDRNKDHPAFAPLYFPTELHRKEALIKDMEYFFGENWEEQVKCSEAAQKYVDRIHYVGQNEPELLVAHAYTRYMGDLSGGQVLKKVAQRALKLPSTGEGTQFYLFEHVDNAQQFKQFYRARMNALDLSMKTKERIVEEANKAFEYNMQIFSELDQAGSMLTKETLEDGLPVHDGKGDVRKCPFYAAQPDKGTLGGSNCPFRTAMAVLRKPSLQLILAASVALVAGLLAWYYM

[3] = rat spleen microsomes, average ± standard deviation of replicate experiments, read-out: IC50 HO-1 (rat spleen)/μM
[4] = rat brain microsomes, average ± standard deviation of replicate experiments, read-out: IC50 HO-2 (rat brain)/μM

Compound | melting point [°C] | IC50 [1, 3] [µM] | IC50 [2, 4] [µM] | other results
Cl.Clc1ccc(CC[C@@]2(Cn3ccnc3)OC[C@@H](CSC3CCCCC3)O2)cc1 | 172 to 173 |  |  | 
Cl.Clc1ccc(CC[C@@]2(Cn3ccnc3)OC[C@@H](CSc3cccc(Br)c3)O2)cc1 | 128 to 129 |  |  | 
C[C@H]1CO[C@@](CCc2ccc(Cl)cc2)(Cn2ccnc2)O1.Cl | 148 to 149 |  |  | 
C[C@H]1CO[C@](CCc2ccc(Cl)cc2)(Cn2ccnc2)O1.Cl | 172 to 173 |  |  | 
C[C@@H]1CO[C@](CCc2ccc(Cl)cc2)(Cn2ccnc2)O1.Cl | 152 to 153 |  |  | 
Cl.Clc1ccc(CC[C@@]2(Cn3ccnc3)OC[C@@H](CSc3ccc(Br)cc3)O2)cc1 | 141 to 142 |  |  | 
Cl.Oc1ccc(OC[C@H]2CO[C@@](CCc3ccc(Cl)cc3)(Cn3ccnc3)O2)cc1 | 128 to 130 |  |  | 
COc1ccc(SC[C@@H]2CO[C@@](CCc3ccc(Cl)cc3)(Cn3ccnc3)O2)cc1.Cl | 139 to 140 |  |  | 
Cl.Clc1ccc(CC[C@@]2(Cn3ccnc3)OC[C@@H](CSc3ccc(Cl)cc3)O2)cc1 | 128 to 129 |  |  | 
Cl.Fc1ccc(SC[C@@H]2CO[C@@](CCc3ccc(Cl)cc3)(Cn3ccnc3)O2)cc1 | 112 to 113 |  |  | 
Cl.Fc1ccc(CCC2(Cn3ccnc3)OCCO2)cc1 | 153 to 154 |  |  | 
Cl.c1ccc(CCC2(Cn3ccnc3)OCCO2)cc1 | 164 to 165 |  |  | 
Cl.FC(F)(F)c1ccc(SC[C@@H]2CO[C@@](CCc3ccc(Cl)cc3)(Cn3ccnc3)O2)nc1 | 156 to 157 |  |  | 
Cl.Clc1ccc(CC[C@@]2(Cn3ccnc3)OC[C@H](COc3ccc(C45CC6CC(CC(C6)C4)C5)cc3)O2)cc1 | 132 to 134 |  |  | 
Cl.OC(CCc1ccc(F)cc1)Cn1ccnc1 (racemic) | 86 to 87 |  |  | 
Cl.Clc1ccc(CC[C@@]2(Cn3ccnc3)OC[C@@H](COc3ccc(Br)cc3)O2)cc1 (stereo in doubt) | 55 to 57 |  |  | 
Cl.Clc1ccc(CC[C@@]2(Cn3ccnc3)OC[C@@H](COc3ccc(I)cc3)O2)cc1 (stereo in doubt) | 113 to 114 |  |  | 
Clc1ccc(CC[C@@]2(Cn3ccnc3)OC[C@@H](CSc3ccc(Br)cc3)O2)cc1 [(2R,4S)-2-[2-(4-chlorophenyl)ethyl]-2-[(1H-imidazol-1-yl)methyl]-4-[{(4-bromophenyl)thio}meth-yl]-1,3-dioxolane hydrochloride] |  | 2.1 ± 0.9 | 2.4 ± 0.1 | 
Clc1ccc(CC[C@@]2(Cn3ccnc3)OC[C@@H](CSc3ccc(Cl)cc3)O2)cc1 [(2R,4S)-2-[2-(4-chlorophenyl)ethyl]-2-[(1H-imidazol-1-yl)methyl]-4-[{(4-chlorophenyl)thio}meth-yl]-1,3-dioxolane hydrochloride] |  | 2.8 ± 0.4 | 12 ± 5 | 
Fc1ccc(SC[C@@H]2CO[C@@](CCc3ccc(Cl)cc3)(Cn3ccnc3)O2)cc1 [(2R,4S)-2-[2-(4-chlorophenyl)ethyl]-2-[(1H-imidazol-1-yl)methyl]-4-[{(4-fluorophenyl)thio}meth-yl]-1,3-dioxolane hydrochloride] |  | 2.2 ± 0.2 | 5 ± 4 | 

Compound | melting point [°C] | IC50 [1, 3] [µM] | IC50 [2, 4] [µM] | other results
Oc1ccc(SC[C@@H]2CO[C@@](CCc3ccc(Cl)cc3)(Cn3ccnc3)O2)cc1 [(2R,4S)-2-[2-(4-chlorophenyl)ethyl]-2-[(1H-imidazol-1-yl)methyl]-4-[{(4-hydroxyphenyl)thio}methyl]-1,3-dioxolane] |  | 1.59 ± 0.03 | 7 ± 2 | 
COc1ccc(SC[C@@H]2CO[C@@](CCc3ccc(Cl)cc3)(Cn3ccnc3)O2)cc1 [(2R,4S)-2-[2-(4-chlorophenyl)ethyl]-2-[(1H-imidazol-1-yl)methyl]-4-[{(4-methoxyphenyl)thio}methyl]-1,3-dioxolane hydrochloride] |  | 0.7 ± 0.3 | 2.5 ± 0.4 | 
O=[N+]([O-])c1ccc(SC[C@@H]2CO[C@@](CCc3ccc(Cl)cc3)(Cn3ccnc3)O2)cc1 [(2R,4S)-2-[2-(4-chlorophenyl)ethyl]-2-[(1H-imidazol-1-yl)methyl]-4-[{(4-nitrophenyl)thio}meth-yl]-1,3-dioxolane hydrochloride] |  | 6 ± 2 | 19 ± 2 | 
Clc1ccc(CC[C@@]2(Cn3ccnc3)OC[C@@H](CSc3ccncc3)O2)cc1 [(2R,4S)-2-[2-(4-chlorophenyl)ethyl]-2-[(1H-imidazol-1-yl)methyl]-4-[{(4-pyridinyl)thio}methyl]-1,3-dioxolane dihydrochloride] |  | 25 ± 5 | 69 ± 8 | 
C[C@H]1CO[C@@](CCc2ccc(Cl)cc2)(Cn2ccnc2)O1 [(2R,4S)-2-[2-(4-chlorophenyl)ethyl]-2-[(1H-imidazol-1-yl)methyl]-4-methyl-1,3-dioxolane hydrochloride] |  | 2.6 ± 0.4 |  | IC50 [2]: > 100 µM
FC(F)(F)c1ccc(SC[C@@H]2CO[C@@](CCc3ccc(Cl)cc3)(Cn3ccnc3)O2)nc1 [(2R,4S)-2-[2-(4-chlorophenyl)ethyl]-2-[(1H-imidazol-1-yl)methyl]-4[{(5-trifluoromethyl-pyridin-2-yl)ethio}methyl]-1,3-dioxolane hydrochloride] |  | 2.1 ± 0.6 | 16 ± 8 | 
Cc1ccc(S(=O)(=O)OC[C@H]2CO[C@](CCc3ccc(Cl)cc3)(Cn3ccnc3)O2)cc1 [(2S,4R)-2-[2-(4-chlorophenyl)ethyl]-2-[(1H-imidazol-1-yl)methyl]-4-[(p-toluenesulfonyloxy)meth-yl]-1,3-dioxolane] |  |  |  | IC50 [1]: 17 ± 1 µM; IC50 [2]: 120 ± 34 µM
Nc1ccccc1SC[C@H]1CO[C@](CCc2ccc(Cl)cc2)(Cn2ccnc2)O1 [(2S,4R)-2-[2-(4-chlorophenyl)ethyl]-2-[(1H-imidazol-1-yl)methyl]-4-[{(2-aminophenyl)thio}meth-yl]-1,3-dioxolane hydrochloride] |  | ~4.2 | > 100 | 
C[C@@H]1CO[C@](CCc2ccc(Cl)cc2)(Cn2ccnc2)O1 [(2S,4R)-2-[2-(4-chlorophenyl)ethyl]-2-[(1H-imidazol-1-yl)methyl]-4-methyl-1,3-dioxolane hydrochloride] |  | 20 ± 4 | > 100 | 
Clc1ccc(CC[C@]2(Cn3ccnc3)OC[C@@H](CSc3ccc4ccccc4c3)O2)cc1 [(2S,4S)-2-[2-(4-chlorophenyl)ethyl]-2-[(1H-imidazol-1-yl)methyl]-4-[{(2-naphthyl)thio}methyl]-1,3-dioxolane hydrochloride] |  | 14 ± 2 | 62 ± 7 | 
C[C@H]1CO[C@](CCc2ccc(Cl)cc2)(Cn2ccnc2)O1 [(2S,4S)-2-[2-(4-chlorophenyl)ethyl]-2-[(1H-imidazol-1-yl)methyl]-4-methyl-1,3-dioxolane hydrochloride] |  | 12 ± 4 | > 100 | 
COC(=O)Nc1nc2ccc([S+]([O-])c3ccccc3)cc2[nH]1 (stereo not drawn) [(5-benzenesulfinyl-1H-benzoimidazol-2-yl)-carbamic acid methyl ester] |  | 115 | > 100 | 
c1ccc2[nH]cnc2c1 [Benzimidazole, reference compound] |  | > 100 | > 100 | 
COC(=O)Nc1nc2ccc(Sc3ccccc3)cc2[nH]1 [Fenbendazol, reference compound] |  | > 100 | > 100 | 
COC(=O)Nc1nc2cc(C(=O)c3ccc(F)cc3)ccc2[nH]1 [Flubendazol, reference compound] |  | > 100 | > 100 | 
COC(=O)Nc1nc2ccc(C(=O)c3cccs3)cc2[nH]1 [Nocodazole, reference compound] |  | > 100 | > 100 | 
FC[C@@H]1CO[C@@](CCc2ccc(Cl)cc2)(Cn2ccnc2)O1 [drawing 85, (2R,4S)-2-[2-(4-chlorophenyl)ethyl]-2-[(1H-imidazol-1-yl)methyl]-4-(fluoromethyl)-1,3-dioxolane hydrochloride] |  | 1.2 ± 0.01 | 4.4 ± 0.4 | 
O=C(CCc1ccccc1)Cn1cnc(-c2ccccc2)c1 [drawing 162, 4-Phenyl-1-(4-phenyl-imidazol-1-yl)-butan-2-one hydrochloride] |  | 32 ± 2 | > 100 | 
O=C(CCc1ccccc1)Cn1cnc(-c2ccccc2)c1 [drawing 256, 4-Phenyl-1-(4-phenyl-1H-imidazol-1-yl)-butan-2-one hydrochloride] |  | 32 ± 2 | > 100 | 
Imidazole [reference compound] |  | > 100 | > 100 | 

Reference: patent US20140155445A1, “Compounds and Methods for Treating Cancer and Diseases of the Central Nervous System” (Osta Biotechnologies Inc., priority 2007, published 2014)
